Experimental findings from patent publication US8835556B2, “Hydrolytically stable maleimide-terminated polymers” (priority 2002, dated 2014) are described below.

For this series the following is noted: buffer.

Description: Typically, such hydrolysis evaluations are carried out at pH 7.5 in phosphate buffer at room temperature and are measured by observing the UV absorption of the maleimide ring.
The half-life of a polymer maleimide can be determined by measuring the concentration of the maleimide-terminated polymer over time using HPLC or by observing the UV absorption of the maleimide ring.
Using HPLC analysis, the rate of hydrolytic degradation of the maleimide ring of several exemplary maleimide-terminated mPEG polymers (average molecular weight 5000 Da) was explored.
The following linkages between the maleimide and the PEG polymer segment were evaluated: amidoethylene (L1-AMDE), amidopentamethylene (L1-AMPE), amidocyclohexylmethyl (L1-MCH), oxybutyl (L3-TEME), oxyhexyl (L3-HEXA), oxyethyl (L3-ET), and oxypropyl (L3-TME).
Hydrolysis studies were conducted on several exemplary stabilized PEG-maleimides as described above in Example 7.

Take “1-(N-maleimidomethyl)-4-(methoxypoly(ethylene glycol)propionamidomethyl)cyclohexane”: the “HALF-LIFE, IN HOURS” value was determined as 20.6 h.
Still for that read-out and setting: the value for “1-N-maleimidomethyl-3-(methoxypoly(ethylene glycol)propionamidomethyl)cyclohexane” was 64.6 h.
With “mPEG (5K DA)-propylmaleimide [mPEG-TME-MAL]”, the “HALF-LIFE, IN HOURS” value is 11.5 h and the “Half-life” value stood at 11.5 h.
